Laboratory results: patent US20240238423A9, “TETRAHYDROISOQUINOLINE HETEROBIFUNCTIONAL BCL-XL DEGRADERS” (Treeline Biosciences, Inc., priority 2022, published 2024)

Molecular target: T1, Human BCL-XL protein (N-terminal HiBiT tagged BCL-XL in HT1080 cells) (Homo sapiens, UniProt Q07817)
T1 construct: expressed in transfected cells; host or cells: HT-1080 (ATCC CCL-121), stably transduced with lentivirus pLV-UBC-N-HiBiT-BCL-XL-PGK-puro and selected with puromycin
Experiment: HiBiT based degradation assay
Assay type: cell-based
Conditions: HT1080 cells expressing HiBiT-BCL-XL, 24 h; for Ymin (24 h): BCL-XL degradation normalized with DMSO control; for DC50: BCL-XL degradation, read-out: EC50 (24 h)
Outline: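 HT1080 cells stably transduced by lentivirus with N-terminally HiBiT-tagged human BCL-XL and kept under 1 μg/mL puromycin selection were seeded at three thousand cells per well in 40 μL RPMI 1640 into 384-well plates pre-spotted with compounds across a concentration range. Luminescence was read on a PHERAstar FSX, normalized to DMSO, and fitted with a four-parameter logistic model.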

T1 sequence (Q07817 whole entry): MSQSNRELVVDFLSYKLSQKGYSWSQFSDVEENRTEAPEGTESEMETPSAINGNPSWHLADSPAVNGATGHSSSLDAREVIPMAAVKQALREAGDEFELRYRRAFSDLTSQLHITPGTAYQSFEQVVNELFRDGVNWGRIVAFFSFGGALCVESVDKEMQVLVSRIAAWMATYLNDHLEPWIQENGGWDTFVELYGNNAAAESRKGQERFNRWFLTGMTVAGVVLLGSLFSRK

Ymin (24 h) | DC50 [nM] | SMILES
A (Ymin < 50%) | < 100 | Cc1c(O[C@H]2CC[C@H](CCC(=O)N3CCC(c4ccc5c(C6CCC(=O)NC6=O)nn(C)c5c4)CC3)CC2)cccc1-c1ccc(N2CCc3cccc(C(=O)Nc4nc5ccccc5s4)c3C2)nc1C(=O)O (stereo partly drawn) [Compound 259a, 6-(8-(benzo[d]thiazol-2-ylcarbamoyl)-3,4-dihydroisoquinolin-2(1H)-yl)-3-(3-(((1r,4r)-4-(3-(4-(3-(2,6-dioxopiperidin-3-yl)-1-methyl-1H-indazol-6-yl)piperidin-1-yl)-3-oxopropyl)cyclohexyl)oxy)-2-methylphenyl)picolinic acid]
A (Ymin < 50%) | < 100 | Cc1c(OCCCN2CCN(CC3CCC4(CC3)CN(c3cccc5c(C6CCC(=O)NC6=O)nn(C)c35)C4)CC2)cccc1-c1ccc(N2CCc3cccc(C(=O)Nc4nc5ccccc5s4)c3C2)nc1C(=O)O (stereo not drawn) [Compound 260, 6-(8-(benzo[d]thiazol-2-ylcarbamoyl)-3,4-dihydroisoquinolin-2(1H)-yl)-3-(3-(3-(4-((2-(3-(2,6-dioxopiperidin-3-yl)-1-methyl-1H-indazol-7-yl)-2-azaspiro[3.5]nonan-7-yl)methyl)piperazin-1-yl)propoxy)-2-methylphenyl)picolinic acid]
A (Ymin < 50%) | < 100 | Cc1c(OCCC2CCN(CC3CCN(c4cccc5c(C6CCC(=O)NC6=O)nn(C)c45)CC3)CC2)cccc1-c1ccc(N2CCc3cccc(C(=O)Nc4nc5ccccc5s4)c3C2)nc1C(=O)O (stereo not drawn) [Compound 261, 6-[8-(1,3-benzothiazol-2-ylcarbamoyl)-3,4-dihydro-1H-isoquinolin-2-yl]-3-[3-[2-[1-[[1-[3-(2,6-dioxo-3-piperidyl)-1-methyl-indazol-7-yl]-4-piperidyl]methyl]-4-piperidyl]ethoxy]-2-methyl-phenyl]pyridine-2-carboxylic acid]
A (Ymin < 50%) | < 100 | Cc1cc(OCCCC2(C)CCN(CC(=O)Nc3ccc4c(C5CCC(=O)NC5=O)nn(C)c4c3)CC2)ccc1-c1ccc(N2CCc3cccc(C(=O)Nc4nc5ccccc5s4)c3C2)nc1C(=O)O (stereo not drawn) [Compound 264, 6-[8-(1,3-benzothiazol-2-ylcarbamoyl)-3,4-dihydro-1H-isoquinolin-2-yl]-3-[4-[3-[1-[2-[[3-(2,6-dioxo-3-piperidyl)-1-methyl-indazol-6-yl]amino]-2-oxo-ethyl]-4-methyl-4-piperidyl]propoxy]-2-methyl-phenyl]pyridine-2-carboxylic acid]
A (Ymin < 50%) | < 100 | Cc1cc(OCC2CC3(CCN(CC(=O)Nc4ccc5c(C6CCC(=O)NC6=O)nn(C)c5c4)CC3)C2)ccc1-c1ccc(N2CCc3cccc(C(=O)Nc4nc5ccccc5s4)c3C2)nc1C(=O)O (stereo not drawn) [Compound 265, 6-(8-(benzo[d]thiazol-2-ylcarbamoyl)-3,4-dihydroisoquinolin-2(1H)-yl)-3-(4-((7-(2-((3-(2,6-dioxopiperidin-3-yl)-1-methyl-1H-indazol-6-yl)amino)-2-oxoethyl)-7-azaspiro[3.5]nonan-2-yl)methoxy)-2-methylphenyl)picolinic acid]
A (Ymin < 50%) | < 100 | Cc1c(OCCCC2(C)CCN(CC(=O)Nc3ccc4c(C5CCC(=O)NC5=O)nn(C)c4c3)CC2)cccc1-c1ccc(N2CCc3cccc(C(=O)Nc4nc5ccccc5s4)c3C2)nc1C(=O)O (stereo not drawn) [Compound 267, 6-[8-(1,3-benzothiazol-2-ylcarbamoyl)-3,4-dihydro-1H-isoquinolin-2-yl]-3-[3-[3-[1-[2-[[3-(2,6-dioxo-3-piperidyl)-1-methyl-indazol-6-yl]amino]-2-oxo-ethyl]-4-methyl-4-piperidyl]propoxy]-2-methyl-phenyl]pyridine-2-carboxylic acid]
A (Ymin < 50%) | < 100 | Cc1c(O[C@H]2CC[C@H](CCCN3CCC(c4ccc5c(C6CCC(=O)NC6=O)nn(C)c5c4)CC3)CC2)cccc1-c1ccc(N2CCc3cccc(C(=O)Nc4nc5ccccc5s4)c3C2)nc1C(=O)O (stereo partly drawn) [Compound 269a, 6-(8-(benzo[d]thiazol-2-ylcarbamoyl)-3,4-dihydroisoquinolin-2(1H)-yl)-3-(3-(((1s,4r)-4-(3-(4-(3-(2,6-dioxopiperidin-3-yl)-1-methyl-1H-indazol-6-yl)piperidin-1-yl)propyl)cyclohexyl)oxy)-2-methylphenyl)picolinic acid]
A (Ymin < 50%) | < 100 | Cc1c(O[C@H]2CC[C@H](CCCN3CCC(c4cccc5c(C6CCC(=O)NC6=O)nn(C)c45)CC3)CC2)cccc1-c1ccc(N2CCc3cccc(C(=O)Nc4nc5ccccc5s4)c3C2)nc1C(=O)O (stereo partly drawn) [Compound 270a, 6-(8-(benzo[d]thiazol-2-ylcarbamoyl)-3,4-dihydroisoquinolin-2(1H)-yl)-3-(3-(((1s,4r)-4-(3-(4-(3-(2,6-dioxopiperidin-3-yl)-1-methyl-1H-indazol-7-yl)piperidin-1-yl)propyl)cyclohexyl)oxy)-2-methylphenyl)picolinic acid]
A (Ymin < 50%) | < 100 | Cc1c(O[C@H]2CC[C@H](CCCN3CCN(c4ccc5c(C6CCC(=O)NC6=O)nn(C)c5c4)C[C@H]3C)CC2)cccc1-c1ccc(N2CCc3cccc(C(=O)Nc4nc5ccccc5s4)c3C2)nc1C(=O)O (stereo partly drawn) [Compound 273a, 6-(8-(benzo[d]thiazol-2-ylcarbamoyl)-3,4-dihydroisoquinolin-2(1H)-yl)-3-(3-(((1S,4r)-4-(3-((2R)-4-(3-(2,6-dioxopiperidin-3-yl)-1-methyl-1H-indazol-6-yl)-2-methylpiperazin-1-yl)propyl)cyclohexyl)oxy)-2-methylphenyl)picolinic acid]
A (Ymin < 50%) | < 100 | Cc1c(O[C@H]2CC[C@H](CCCN3CCN(c4ccc5c(C6CCC(=O)NC6=O)nn(C)c5c4)C[C@@H]3C)CC2)cccc1-c1ccc(N2CCc3cccc(C(=O)Nc4nc5ccccc5s4)c3C2)nc1C(=O)O (stereo partly drawn) [Compound 273b, 6-(8-(benzo[d]thiazol-2-ylcarbamoyl)-3,4-dihydroisoquinolin-2(1H)-yl)-3-(3-(((1R,4r)-4-(3-((2S)-4-(3-(2,6-dioxopiperidin-3-yl)-1-methyl-1H-indazol-6-yl)-2-methylpiperazin-1-yl)propyl)cyclohexyl)oxy)-2-methylphenyl)picolinic acid]
A (Ymin < 50%) | < 100 | Cc1c(O[C@H]2CC[C@H](CCCN3CCN(c4cccc5c(C6CCC(=O)NC6=O)nn(C)c45)[C@H](C)C3)CC2)cccc1-c1ccc(N2CCc3cccc(C(=O)Nc4nc5ccccc5s4)c3C2)nc1C(=O)O (stereo partly drawn) [Compound 274a, 6-(8-(benzo[d]thiazol-2-ylcarbamoyl)-3,4-dihydroisoquinolin-2(1H)-yl)-3-(3-(((1S,4r)-4-(3-((3R)-4-(3-(2,6-dioxopiperidin-3-yl)-1-methyl-1H-indazol-7-yl)-3-methylpiperazin-1-yl)propyl)cyclohexyl)oxy)-2-methylphenyl)picolinic acid]
A (Ymin < 50%) | < 100 | Cc1c(O[C@H]2CC[C@H](CCCN3CCN(c4cccc5c(C6CCC(=O)NC6=O)nn(C)c45)[C@@H](C)C3)CC2)cccc1-c1ccc(N2CCc3cccc(C(=O)Nc4nc5ccccc5s4)c3C2)nc1C(=O)O (stereo partly drawn) [Compound 274b, 6-(8-(benzo[d]thiazol-2-ylcarbamoyl)-3,4-dihydroisoquinolin-2(1H)-yl)-3-(3-(((1R,4r)-4-(3-((3S)-4-(3-(2,6-dioxopiperidin-3-yl)-1-methyl-1H-indazol-7-yl)-3-methylpiperazin-1-yl)propyl)cyclohexyl)oxy)-2-methylphenyl)picolinic acid]
A (Ymin < 50%) | < 100 | Cc1c(O[C@H]2CC[C@H](CCCN3CCN(c4cccc5c(C6CCC(=O)NC6=O)nn(C)c45)C[C@H]3C)CC2)cccc1-c1ccc(N2CCc3cccc(C(=O)Nc4nc5ccccc5s4)c3C2)nc1C(=O)O (stereo partly drawn) [Compound 275a, 6-(8-(benzo[d]thiazol-2-ylcarbamoyl)-3,4-dihydroisoquinolin-2(1H)-yl)-3-(3-(((1S,4r)-4-(3-((2R)-4-(3-(2,6-dioxopiperidin-3-yl)-1-methyl-1H-indazol-7-yl)-2-methylpiperazin-1-yl)propyl)cyclohexyl)oxy)-2-methylphenyl)picolinic acid]
C (Ymin ≥ 70%) | < 100 | Cc1c(O[C@H]2CC[C@H](CCCN3CCN(c4cccc5c(C6CCC(=O)NC6=O)nn(C)c45)C[C@@H]3C)CC2)cccc1-c1ccc(N2CCc3cccc(C(=O)Nc4nc5ccccc5s4)c3C2)nc1C(=O)O (stereo partly drawn) [Compound 275b, 6-(8-(benzo[d]thiazol-2-ylcarbamoyl)-3,4-dihydroisoquinolin-2(1H)-yl)-3-(3-(((1R,4r)-4-(3-((2S)-4-(3-(2,6-dioxopiperidin-3-yl)-1-methyl-1H-indazol-7-yl)-2-methylpiperazin-1-yl)propyl)cyclohexyl)oxy)-2-methylphenyl)picolinic acid]
A (Ymin < 50%) | < 100 | Cc1c(OCCC2CC3(C2)CN(CC(=O)Nc2ccc4c(C5CCC(=O)NC5=O)nn(C)c4c2)C3)cccc1-c1ccc(N2CCc3cccc(C(=O)Nc4nc5ccccc5s4)c3C2)nc1C(=O)O (stereo not drawn) [Compound 277, 6-(8-(benzo[d]thiazol-2-ylcarbamoyl)-3,4-dihydroisoquinolin-2(1H)-yl)-3-(3-(2-(2-(2-((3-(2,6-dioxopiperidin-3-yl)-1-methyl-1H-indazol-6-yl)amino)-2-oxoethyl)-2-azaspiro[3.3]heptan-6-yl)ethoxy)-2-methylphenyl)picolinic acid]
